Assay results from US20190085024A1, “Alpha-Ketoamide Inhibitors Of Cysteine Proteases” (Phelix Therapeutics, priority 2017, published 2019).
*1 amine or outer side, *2 acyl side, *3 side chain or, on linkers, in order; H or OH if unused. Where a SMILES comes first, the peptide text is derived from it. [ ]: non-standard residue; d: D form. The star is where a group is joined. 2Nal = N[CH](Cc1ccc2ccccc2c1)C(=O)O; X2 = C=CCOCC(N[*:1])C(=O)C(=O)[*:2]; PhAc = O=C(Cc1ccccc1)*; Allyl = C=CC*

Experiments:
Cathepsin B = Cathepsin B (Homo sapiens, UniProt P07858); assay: Cathepsin B enzyme assay; conditions: Cat B (μM), Ki by Morrison equation; pH 6.0, substrate Z-Phe-Arg-Amc
Cat S = Cat S (Homo sapiens, UniProt P25774); assay: Cat S inhibition; format: biochemical
[1] = system: EBOV WT (Ebola Wild Type); assay: microbe, parasite or virus in culture; format: cell-based; conditions: Zaire ebolavirus, read-out: EBOV WT (μM) (Ebola Wild Type)
Cathepsin L = Cathepsin L (Homo sapiens, UniProt P07711); assay: Cathepsin L enzyme assay; format: biochemical; conditions: Ki by Morrison equation; pH 5.5, substrate Z-Phe-Arg-Amc; read-out: Cat L
Description: Two wells contained DMSO only for controls.
Velocity was converted to μM/sec.

Calpain = Calpain enzyme assay; format: biochemical; conditions: Ki by Morrison equation; pH 7.5, 5 mM CaCl2
MERS WT = assay: microbe, parasite or virus in culture; format: cell-based; conditions: Middle East respiratory syndrome-related coronavirus, read-out: MERS WT (μM)
Cat K = target: T1, Cat K (Homo sapiens, UniProt P43235); assay: Cat K inhibition; format: biochemical
T1 sequence (P43235 115-329): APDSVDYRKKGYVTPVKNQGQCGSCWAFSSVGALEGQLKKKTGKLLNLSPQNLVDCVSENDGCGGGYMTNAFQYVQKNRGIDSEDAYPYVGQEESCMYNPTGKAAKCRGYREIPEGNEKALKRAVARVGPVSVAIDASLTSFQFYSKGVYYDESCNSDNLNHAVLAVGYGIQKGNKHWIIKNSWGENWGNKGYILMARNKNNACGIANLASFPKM

Sequence of Cat S (P25774 115-331): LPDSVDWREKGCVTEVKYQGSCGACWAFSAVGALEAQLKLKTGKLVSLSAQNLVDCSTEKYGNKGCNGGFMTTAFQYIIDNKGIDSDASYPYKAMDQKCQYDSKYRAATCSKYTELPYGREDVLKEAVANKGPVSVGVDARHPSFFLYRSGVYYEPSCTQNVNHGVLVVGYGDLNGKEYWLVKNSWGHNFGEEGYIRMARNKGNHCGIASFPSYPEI
Sequence of Cathepsin L (P07711 114-333, species assumed): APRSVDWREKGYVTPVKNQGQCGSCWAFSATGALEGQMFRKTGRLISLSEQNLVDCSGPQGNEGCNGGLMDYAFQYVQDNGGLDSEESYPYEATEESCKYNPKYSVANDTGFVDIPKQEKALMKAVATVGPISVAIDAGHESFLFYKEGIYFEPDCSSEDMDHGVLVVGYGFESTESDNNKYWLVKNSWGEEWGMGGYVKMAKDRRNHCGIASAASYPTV

CC(NC(=O)C(Cc1ccc(F)cc1)NC(=O)Cc1ccccc1)C(=O)C(=O)NC(Cc1ccccc1)C(=O)NC(C)(C)C(N)=O (stereo not drawn) [PHELIX208, N-(1-((1-amino-2-methyl-1-oxopropan-2-yl)amino)-1-oxo-3-phenylpropan-2-yl)-3-(3-(4-fluorophenyl)-2-(2-phenylacetamido)propanamido)-2-oxobutanamide]
Ki (Cathepsin B): 0.42 µM
Ki (Cat S): 3.73 nM
IC50 [1]: 8.15 µM
Ki (Cathepsin L): 15.4 nM
Ki (Calpain): > 10000 nM
IC50 (MERS WT): 184 µM
Ki (Cat K): 1920 nM

CC(NC(=O)C(Cc1ccccc1)NC(=O)Cc1ccccc1)C(=O)C(=O)NC(Cc1ccccc1)C(=O)NC(C)(C)C(=O)NCCN1CCOCC1 (stereo not drawn) [PHELIX231, N-(1-((2-methyl-1-((2-morpholinoethyl)amino)-1-oxopropan-2-yl)amino)-1-oxo-3-phenylpropan-2-yl)-2-oxo-3-(3-phenyl-2-(2-phenylacetamido)propanamido)butanamide]
Ki (Cathepsin B): 2.3 µM
Ki (Cat S): 200 nM
Ki (Cathepsin L): 13.7 nM
Ki (Calpain): 3790 nM
Ki (Cat K): 4890 nM

Cc1cccc(CC(=O)NC(Cc2ccccc2)C(=O)NC(C)C(=O)C(=O)NC(Cc2ccccc2)C(=O)NC(C)(C)C(N)=O)c1 (stereo not drawn) [PHELIX225, N-(1-((1-amino-2-methyl-1-oxopropan-2-yl)amino)-1-oxo-3-phenylpropan-2-yl)-2-oxo-3-(3-phenyl-2-(2-(m-tolyl)acetamido)propanmido)butanamide]
Ki (Cathepsin B): 0.299 µM
Ki (Cat S): 8.12 nM
IC50 [1]: 6.17 µM
Ki (Cathepsin L): 18.6 nM
Ki (Calpain): > 10000 nM
IC50 (MERS WT): 84.2 µM
Ki (Cat K): 254 nM

CC(NC(=O)C(Cc1ccccc1)NC(=O)Cc1ccccc1)C(=O)C(=O)NC(Cc1ccccc1)C(=O)NC(C)(C)C(=O)NCCc1ccccc1 (stereo not drawn) [PHELIX230, N-(1-((2-methyl-1-oxo-1-(phenethylamino)propan-2-yl)amino)-1-oxo-3-phenylpropan-2-yl)-2-oxo-3-(3-phenyl-2-(2-phenylacetamido)propanamido)butanamide]
Ki (Cathepsin B): 0.236 µM
Ki (Cat S): 11.5 nM
Ki (Cathepsin L): 6.78 nM
Ki (Calpain): > 10000 nM
Ki (Cat K): 310 nM

CC(NC(=O)C(Cc1ccccc1)NC(=O)Cc1ccccc1)C(=O)C(=O)NC(Cc1ccccc1)C(=O)NC(C)(C)C(N)=O (stereo not drawn) [PHELIX249, N-(1-((1-amino-2-methyl-1-oxopropan-2-yl)amino)-1-oxo-3-phenylpropan-2-yl)-2-oxo-3-(3-phenyl-2-(2-phenylacetamido)propanamido)butanamide]
Ki (Cathepsin B): 0.349 µM
Ki (Cat S): 6.81 nM
Ki (Cathepsin L): 101 nM
Ki (Calpain): > 10000 nM
IC50 (MERS WT): > 30 µM
Ki (Cat K): 736 nM

CC(NC(=O)C(Cc1ccccc1)NC(=O)c1cccc(F)c1)C(=O)C(=O)NC(Cc1ccccc1)C(=O)NC(C)(C)C(N)=O (stereo not drawn) [PHELIX222, N-(1-((4-((1-((1-amino-2-methyl-1-oxopropan-2-yl)amino)-1-oxo-3-phenylpropan-2-yl)amino)-3,4-dioxobutan-2-yl)amino)-1-oxo-3-phenylpropan-2-yl)-3-fluorobenzamide]
Ki (Cathepsin B): 1.83 µM
Ki (Cat S): 17.7 nM
IC50 [1]: 5.19 µM
Ki (Cathepsin L): 25 nM
Ki (Calpain): > 10000 nM
IC50 (MERS WT): 151 µM
Ki (Cat K): 3320 nM

CC(C)CC(NC(=O)OCc1ccccc1)C(=O)NC(C)C(=O)C(=O)NCC(=O)NC(Cc1ccccc1)C(=O)NCCc1ccccc1 (stereo not drawn) [PHELIX238, benzyl (5-benzyl-12,17-dimethyl-4,7,10,11,14-pentaoxo-1-phenyl-3,6,9,13-tetraazaoctadecan-15-yl)carbamate]
Ki (Cathepsin B): 0.313 µM
Ki (Cat S): 20.3 nM
Ki (Cathepsin L): 3.88 nM
Ki (Calpain): 91.1 nM
Ki (Cat K): 27.7 nM

CC(NC(=O)C(Cc1cccc(C(F)(F)F)c1)NC(=O)Cc1ccccc1)C(=O)C(=O)NC(Cc1ccccc1)C(=O)NC(C)(C)C(N)=O (stereo not drawn) [PHELIX209, N-(1-((1-amino-2-methyl-1-oxopropan-2-yl)amino)-1-oxo-3-phenylpropan-2-yl)-2-oxo-3-(2-(2-phenylacetamido)-3-(3-(trifluoromethyl)phenyl)propanamido)butanamide]
Ki (Cathepsin B): 0.234 µM
Ki (Cat S): 39.9 nM
IC50 [1]: 7.87 µM
Ki (Cathepsin L): 66.3 nM
Ki (Calpain): > 10000 nM
IC50 (MERS WT): > 10 µM
Ki (Cat K): > 10000 nM

CC(NC(=O)C(Cc1ccccc1)NC(=O)Cc1ccccc1)C(=O)C(=O)NC(CCCNC(=N)N)C(=O)NC(C)(C)C(N)=O (stereo not drawn) [PHELIX234, N-(1-amino-2-methyl-1-oxopropan-2-yl)-5-guanidino-2-(2-oxo-3-(3-phenyl-2-(2-phenylacetamido)propanamido)butanamido)pentanamide]
Ki (Cathepsin B): > 10 µM
Ki (Cat S): 78.1 nM
Ki (Cathepsin L): 129 nM
Ki (Calpain): > 10000 nM
Ki (Cat K): 1080 nM

CC(NC(=O)C(Cc1ccccc1)NC(=O)Cc1ccccc1)C(=O)C(=O)NC(Cc1cc2ccccc2[nH]1)C(=O)NC(C)(C)C(N)=O (stereo not drawn) [PHELIX232, N-(1-((1-amino-2-methyl-1-oxopropan-2-yl)amino)-3-(1H-indol-2-yl)-1-oxopropan-2-yl)-2-oxo-3-(3-phenyl-2-(2-phenylacetamido)propanamido)butanamide]
Ki (Cathepsin B): 19.9 µM
Ki (Cat S): 147 nM
Ki (Cathepsin L): 213 nM
Ki (Calpain): > 10000 nM
Ki (Cat K): 1840 nM

CC(C)CC(NC(=O)OCc1ccccc1)C(=O)NC(C)C(=O)C(=O)NCCC(=O)NC(Cc1cccc(C#N)c1)C(N)=O (stereo not drawn) [PHELIX185, benzyl (1-((4-((3-((1-amino-3-(3-cyanophenyl)-1-oxopropan-2-yl)amino)-3-oxopropyl)amino)-3,4-dioxobutan-2-yl)amino)-4-methyl-1-oxopentan-2-yl)carbamate]
Ki (Cathepsin B): 2.1 µM
IC50 [1]: 13.3 µM
Ki (Cathepsin L): 102 nM
Ki (Calpain): 68.4 nM
IC50 (MERS WT): > 10 µM

CCC(C)C(NC(=O)C(Cc1ccccc1)NC(=O)Cc1ccccc1)C(=O)C(=O)NC(Cc1ccccc1)C(=O)NC(C)(C)C(N)=O (stereo not drawn) [PHELIX233, N-(1-((1-amino-2-methyl-1-oxopropan-2-yl)amino)-1-oxo-3-phenylpropan-2-yl)-4-methyl-2-oxo-3-(3-phenyl-2-(2-phenylacetamido)propanamido)hexanamide]
Ki (Cathepsin B): 0.223 µM
Ki (Cat S): 2.55 nM
Ki (Cathepsin L): 8.09 nM
Ki (Calpain): > 10000 nM
Ki (Cat K): 354 nM

CC(NC(=O)[C@H](Cc1ccccc1)NC(=O)C(c1ccccc1)c1ccccc1)C(=O)C(=O)N[C@@H](Cc1ccccc1)C(=O)NC(C)(C)C(N)=O (stereo partly drawn) [PHELIX237, N-((S)-1-((1-amino-2-methyl-1-oxopropan-2-yl)amino)-1-oxo-3-phenylpropan-2-yl)-3-((S)-2-(2,2-diphenylacetamido)-3-phenylpropanamido)-2-oxobutanamide]
Ki (Cathepsin B): 0.0211 µM
Ki (Cat S): 0.8 nM
Ki (Cathepsin L): 3.36 nM
Ki (Calpain): > 10000 nM
Ki (Cat K): 226 nM

CC(NC(=O)C(Cc1ccccc1)NC(=O)c1ccccc1F)C(=O)C(=O)NC(Cc1ccccc1)C(=O)NC(C)(C)C(N)=O (stereo not drawn) [PHELIX224, N-(1-((4-((1-((1-amino-2-methyl-1-oxopropan-2-yl)amino)-1-oxo-3-phenylpropan-2-yl)amino)-3,4-dioxobutan-2-yl)amino)-1-oxo-3-phenylpropan-2-yl)-2-fluorobenzamide]
Ki (Cathepsin B): 0.422 µM
Ki (Cat S): 33.2 nM
IC50 [1]: 11 µM
Ki (Cathepsin L): 45.7 nM
Ki (Calpain): > 10000 nM
IC50 (MERS WT): > 10 µM

Cc1ccccc1CC(=O)NC(Cc1ccccc1)C(=O)NC(C)C(=O)C(=O)NC(Cc1ccccc1)C(=O)NC(C)(C)C(N)=O (stereo not drawn) [PHELIX226, N-(1-((1-amino-2-methyl-1-oxopropan-2-yl)amino)-1-oxo-3-phenylpropan-2-yl)-2-oxo-3-(3-phenyl-2-(2-(o-tolyl)acetamido)propanamido)butanamide]
Ki (Cathepsin B): 0.273 µM
IC50 [1]: 5.09 µM
Ki (Cathepsin L): 9.54 nM
Ki (Calpain): > 10000 nM
IC50 (MERS WT): 114 µM
Ki (Cat K): 1770 nM

C=CCOCC(NC(=O)C(CC(C)C)NC(=O)C(Cc1ccc(OCC=C)cc1)NC(=O)Cc1ccccc1)C(=O)C(=O)NCC(=O)NC(Cc1ccc2ccccc2c1)C(N)=O (stereo not drawn) [PHELIX202, N-(1-(allyloxy)-4-((2-((1-amino-3-(naphthalen-2-yl)-1-oxopropan-2-yl)amino)-2-oxoethyl)amino)-3,4-dioxobutan-2-yl)-2-(3-(4-(allyloxy)phenyl)-2-(2-phenylacetamido)propanamido)-4-methylpentanamide] (PhAc-Y(Allyl)L[X2]G[2Nal]-NH2; configuration not given here)
Ki (Cathepsin B): 0.692 µM
IC50 [1]: > 10 µM
Ki (Cathepsin L): 24 nM
Ki (Calpain): 25.3 nM
IC50 (MERS WT): > 10 µM

CC(C)CC(NC(=O)Cc1ccccc1)C(=O)NC(C)C(=O)C(=O)NC(C)C(=O)NC(C)(C)C(N)=O (stereo not drawn) [PHELIX183, N-(4-((1-((1-amino-2-methyl-1-oxopropan-2-yl)amino)-1-oxopropan-2-yl)amino)-3,4-dioxobutan-2-yl)-4-methyl-2-(2-phenylacetamido)pentanamide]
Ki (Cathepsin B): 7.74 µM
IC50 [1]: 29.1 µM
Ki (Cathepsin L): 195 nM
Ki (Calpain): 153 nM
IC50 (MERS WT): 407 µM
